Assay results taken from ChEMBL document CHEMBL6078720, “Design and synthesis of novel 3,7-dihydro-1H-purine-2,6-diones as DPP-4 inhibitors: An in silico, in vitro and in vivo approach” (Eur J Med Chem, 2025).
Calls of active or inactive are those of the source. The rule behind the calls is not given here.

Experiments:
HepG2 [1] = test: Cytotoxicity against human HepG2 cells assessed as cell viability up to 100 uM incubated for 24 hrs by MTT assay; type: toxicity, cell-based; settings: hepg2, 24 h
HepG2 [2] = settings: dose 15 nM; time 24 hrs
HepG2 [3] = settings: dose 15 nM; time 24 hrs; remark: listed apart in the source
Mus musculus [4] = test: Anti-diabetic activity against STZ-NA induced diabetic Swiss Albino mouse model assessed as decrease in blood glucose level at 5 mg/kg, po measured up to 240 mins by Oral glucose tolerance test relative to control; type: functional, organism-based
[5] = Toxicity in STZ-NA induced diabetic Swiss Albino mouse model assessed as decrease in body weight at 5 mg/kg, po measured after 21 days; type: organism-based; settings: in vivo, 504 h, time 21 day
Mus musculus [6] = species: Mus musculus; settings: dose 5 mg/kg; route po; time 21 day
Description: Reversal of STZ-NA induced total ROS formation in diabetic mouse model assessed as decrease in ROS production by measuring mean fluorescence intensity at 5 mg/kg, po after 21 days (Rvb = 287228 No_unit)

Mus musculus [7] = species: Mus musculus; settings: dose 5 mg/kg; route po; time 21 day; remark: listed apart in the source
Description: Reversal of STZ-NA induced increase in DPP-4 production in diabetic mouse model assessed as decrease in DPP-4 expression in liver tissue by measuring mean fluorescence intensity at 5 mg/kg, po after 21 days by flow cytometry (Rvb = 322245 No_unit)

Mus musculus [8] = species: Mus musculus; settings: dose 5 mg/kg; route po; time 21 day; remark: listed apart in the source
Mus musculus [9] = test: Acute anti-hyperglycemic activity against STZ-NA induced diabetic Swiss Albino mouse model assessed as reduction in blood glucose level at 5 mg/kg, po measured up to 24 hrs; type: functional, organism-based
Mus musculus [10] = test: Chronic anti-hyperglycemic activity against STZ-NA induced diabetic Swiss Albino mouse model assessed as reduction in blood glucose level at 5 mg/kg, po measured up to 21 days; type: functional, organism-based; settings: time <= 21.0 day
Dipeptidyl peptidase 4 = Dipeptidyl peptidase 4 (Homo sapiens, UniProt P27487); test: Inhibition of human recombinant DPP-4 using Gly-Pro-AMC as fluorogenic substrate by measuring fluorescence intensity incubated for 30 mins
Chain of Dipeptidyl peptidase 4 (P27487 whole entry): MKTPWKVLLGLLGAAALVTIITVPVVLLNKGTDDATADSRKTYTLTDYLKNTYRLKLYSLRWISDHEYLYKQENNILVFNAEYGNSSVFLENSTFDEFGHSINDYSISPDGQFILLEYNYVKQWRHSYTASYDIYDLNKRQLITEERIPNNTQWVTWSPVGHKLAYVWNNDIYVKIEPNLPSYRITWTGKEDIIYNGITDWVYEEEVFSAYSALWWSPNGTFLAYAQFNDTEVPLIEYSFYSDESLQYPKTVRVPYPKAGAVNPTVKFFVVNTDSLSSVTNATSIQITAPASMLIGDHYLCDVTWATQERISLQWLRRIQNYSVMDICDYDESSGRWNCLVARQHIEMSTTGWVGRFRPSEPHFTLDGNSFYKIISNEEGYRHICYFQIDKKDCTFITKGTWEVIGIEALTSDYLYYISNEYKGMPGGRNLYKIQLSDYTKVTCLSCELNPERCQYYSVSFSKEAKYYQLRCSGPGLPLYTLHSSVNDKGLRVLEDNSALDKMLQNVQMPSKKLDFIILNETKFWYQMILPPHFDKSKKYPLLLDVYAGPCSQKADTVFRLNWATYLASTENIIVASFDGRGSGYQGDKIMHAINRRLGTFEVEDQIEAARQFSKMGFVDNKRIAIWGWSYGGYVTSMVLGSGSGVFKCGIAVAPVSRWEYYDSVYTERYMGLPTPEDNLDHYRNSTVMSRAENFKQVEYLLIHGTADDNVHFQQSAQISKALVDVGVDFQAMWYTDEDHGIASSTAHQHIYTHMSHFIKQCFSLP

Mus musculus [11] = test: Reversal of STZ-NA induced histological abnormalities in diabetic mouse model assessed as enlarged extracellular gaps at 10 mg/kg, po after 21 days by hematoxylin and eosin staining based microscopic assay; type: functional, organism-based; settings: time 21.0 day
Mus musculus [12] = test: Acute anti-hyperglycemic activity against STZ-NA induced diabetic Swiss Albino mouse model assessed as reduction in blood glucose level at 10 mg/kg, po measured up to 24 hrs; type: functional, organism-based
Mus musculus [13] = test: Effect on STZ-NA induced histological abnormalities in diabetic mouse model assessed as change in hepatocyte structure at 10 mg/kg, po after 21 days by hematoxylin and eosin staining based microscopic assay; type: functional, organism-based; settings: time 21.0 day
Mus musculus [14] = test: Effect on STZ-NA induced histological abnormalities in diabetic mouse model assessed as change in hepatocyte density at 10 mg/kg, po after 21 days by hematoxylin and eosin staining based microscopic assay; type: functional, organism-based; settings: time 21.0 day
Mus musculus [15] = test: Effect on STZ-NA induced histological abnormalities in diabetic mouse model assessed as change in appearance of liver at 10 mg/kg, po after 21 days by hematoxylin and eosin staining based microscopic assay; type: functional, organism-based; settings: time 21.0 day
Mus musculus [16] = species: Mus musculus; settings: dose 10 mg/kg; route po; time 21 day
Mus musculus [17] = test: Reversal of STZ-NA induced increase in DPP-4 expression in po dosed diabetic mouse model assessed as decrease in DPP-4 expression in cellular region after 21 days by Immunohistochemical analysis; type: functional, organism-based; settings: dose 5-10 mg/kg, time 21.0 day
Mus musculus [18] = test: Reversal of STZ-NA induced histological abnormalities in diabetic mouse model assessed as hepatic portal vein at 10 mg/kg, po after 21 days by hematoxylin and eosin staining based microscopic assay; type: functional, organism-based; settings: time 21.0 day
[19] = Toxicity in STZ-NA induced diabetic Swiss Albino mouse model assessed as decrease in body weight at 10 mg/kg, po measured after 21 days; type: organism-based; settings: in vivo, 504 h, time 21 day
Mus musculus [20] = test: Reversal of STZ-NA induced increase in DPP-4 mRNA production in po dosed diabetic mouse model assessed as decrease in DPP-4 mRNA expression in liver tissue by measuring mean fluorescence intensity after 21 days by RT-qPCR analysis; type: functional, organism-based; settings: dose 5-10 mg/kg, time 21.0 day
Mus musculus [21] = species: Mus musculus; settings: dose 10 mg/kg; route po; time 21 day; remark: listed apart in the source
Description: Reversal of STZ-NA induced total ROS formation in diabetic mouse model assessed as decrease in ROS production by measuring mean fluorescence intensity at 10 mg/kg, po after 21 days (Rvb = 287228 No_unit)

Mus musculus [22] = test: Reversal of STZ-NA induced histological abnormalities in diabetic mouse model assessed as vacuolation and mild congestion at 10 mg/kg, po after 21 days by hematoxylin and eosin staining based microscopic assay; type: functional, organism-based; settings: time 21.0 day
Mus musculus [23] = test: Effect on STZ-NA induced histological abnormalities in diabetic mouse model assessed as change in hepatocyte size at 10 mg/kg, po after 21 days by hematoxylin and eosin staining based microscopic assay; type: functional, organism-based; settings: time 21.0 day
Mus musculus [24] = test: Anti-diabetic activity against STZ-NA induced diabetic Swiss Albino mouse model assessed as decrease in blood glucose level at 10 mg/kg, po measured up to 240 mins by Oral glucose tolerance test relative to control; type: functional, organism-based
Mus musculus [25] = species: Mus musculus; settings: dose 10 mg/kg; route po; time 21 day; remark: listed apart in the source
Description: Reversal of STZ-NA induced increase in DPP-4 production in diabetic mouse model assessed as decrease in DPP-4 expression in liver tissue by measuring mean fluorescence intensity at 10 mg/kg, po after 21 days by flow cytometry (Rvb = 322245 No_unit)

Mus musculus [26] = test: Chronic anti-hyperglycemic activity against STZ-NA induced diabetic Swiss Albino mouse model assessed as reduction in blood glucose level at 10 mg/kg, po measured up to 21 days; type: functional, organism-based; settings: time <= 21.0 day
Mus musculus [27] = test: Reversal of STZ-NA induced histological abnormalities in diabetic mouse model assessed as vacuoles at 10 mg/kg, po after 21 days by hematoxylin and eosin staining based microscopic assay; type: functional, organism-based; settings: time 21.0 day

Cn1c(=O)c2c(nc(Oc3ccc4ccc(=O)oc4c3)n2CC(=O)c2ccc(-c3ccccc3)cc2)n(C)c1=O
Activity (HepG2 [1]): Non-toxic

Cn1c(=O)c2c(nc(Oc3ccc(C=O)cc3)n2Cc2ccc(Cl)cc2Cl)n(C)c1=O
Activity (HepG2 [1]): Non-toxic

CC#CCn1c(N2CCC[C@@H](N)C2)nc2c1c(=O)n(Cc1nc(C)c3ccccc3n1)c(=O)n2C [LINAGLIPTIN]
Flu intensity (HepG2 [2]): 3493
Flu intensity (HepG2 [3]): 1212
Activity (Mus musculus [4]): Active
Activity [5]: Toxic
Flu intensity (Mus musculus [6]): 15930
Flu intensity (Mus musculus [7]): 20334
Flu intensity (Mus musculus [8]): 2520
Activity (Mus musculus [9]): Active
Activity (Mus musculus [10]): Active

Cn1c(=O)c2c(nc(Oc3ccc([N+](=O)[O-])cc3)n2Cc2ccc(Cl)cc2Cl)n(C)c1=O
Activity (HepG2 [1]): Non-toxic

Cn1c(=O)[nH]c(=O)c2c1nc(Oc1ccc([N+](=O)[O-])cc1)n2Cc1ccc(C#N)cc1
Activity (HepG2 [1]): Non-toxic

COc1cccc(Cn2c(N3CCOCC3)nc3c2c(=O)n(C)c(=O)n3C)c1
Activity (HepG2 [1]): Non-toxic
IC50 (Dipeptidyl peptidase 4): 0.0279 µM

Cn1c(=O)c2c(nc(N3CCOCC3)n2Cc2ccc(F)cc2)n(C)c1=O
Activity (HepG2 [1]): Non-toxic

Cn1c(=O)[nH]c(=O)c2c1nc(N1CCOCC1)n2Cc1ccc(Cl)cc1
Activity (HepG2 [1]): Non-toxic

Cn1c(=O)c2c(nc(N3CCOCC3)n2Cc2ccccc2)n(C)c1=O
Activity (Mus musculus [11]): Active
Activity (Mus musculus [12]): Active; Results Comparable To Linagliptin
Activity (Mus musculus [13]): inactive
Activity (Mus musculus [14]): inactive
Activity (Mus musculus [15]): inactive
Flu intensity (Mus musculus [16]): 4811
Flu intensity (HepG2 [2]): 6930
Activity (Mus musculus [17]): Dose-dependent-effect
Flu intensity (HepG2 [3]): 1460
Activity (Mus musculus [4]): Active
Activity [5]: Toxic
Activity (Mus musculus [18]): Active; Hepatic Portal Vein Looked Similar To Normal Group
Activity [19]: Toxic
Flu intensity (Mus musculus [6]): 82220
Flu intensity (Mus musculus [7]): 240545
Activity (HepG2 [1]): Non-toxic
Activity (Mus musculus [20]): Dose-dependent-effect
Flu intensity (Mus musculus [21]): 49658
Activity (Mus musculus [22]): inactive
Activity (Mus musculus [23]): inactive
Activity (Mus musculus [24]): Active
Flu intensity (Mus musculus [8]): 11036
Flu intensity (Mus musculus [25]): 89888
Activity (Mus musculus [26]): Active; Results Comparable To Linagliptin
IC50 (Dipeptidyl peptidase 4): 0.0157 µM
Activity (Mus musculus [27]): Active

Cn1c(=O)c2c(nc(N3CCOCC3)n2Cc2cccc([N+](=O)[O-])c2)n(C)c1=O
Activity (HepG2 [1]): Non-toxic

Cn1c(=O)n(Cc2ccccc2)c(=O)c2c1nc(Oc1ccc([N+](=O)[O-])cc1)n2Cc1ccc(C#N)cc1
Activity (HepG2 [1]): Non-toxic

C=CCn1c(Oc2ccc([N+](=O)[O-])cc2)nc2c1c(=O)n(Cc1nc(C)c3ccccc3n1)c(=O)n2C
Activity (Mus musculus [11]): Active
Activity (Mus musculus [13]): inactive
Activity (Mus musculus [14]): inactive
Activity (Mus musculus [15]): inactive
Flu intensity (Mus musculus [16]): 9136
Flu intensity (HepG2 [2]): 82988
Activity (Mus musculus [17]): Dose-dependent-effect
Flu intensity (HepG2 [3]): 3565
Activity (Mus musculus [4]): Active
Activity [5]: Toxic
Activity (Mus musculus [18]): Active; Hepatic Portal Vein Looked Similar To Normal Group
Activity [19]: Toxic
Flu intensity (Mus musculus [6]): 165558
Flu intensity (Mus musculus [7]): 248748
Activity (HepG2 [1]): Non-toxic
Activity (Mus musculus [20]): Dose-dependent-effect
Flu intensity (Mus musculus [21]): 138121
Activity (Mus musculus [22]): inactive
Activity (Mus musculus [23]): inactive
Activity (Mus musculus [24]): Active
Flu intensity (Mus musculus [8]): 36602
Flu intensity (Mus musculus [25]): 154821
Activity (Mus musculus [27]): Active

C=CCn1c(=O)c2c(ncn2Cc2ccc(C#N)cc2)n(Cc2ccccc2)c1=O
Activity (HepG2 [1]): Non-toxic

Cn1c(=O)c2c(nc(Oc3ccc(C=O)cc3)n2Cc2ccc(F)cc2)n(C)c1=O
Activity (HepG2 [1]): Non-toxic

Cc1ccc(Cn2cnc3c2c(=O)n(Cc2ccc(C#N)cc2)c(=O)n3C)cc1
Activity (HepG2 [1]): Non-toxic

Cn1c(=O)c2c(nc(Oc3ccc([N+](=O)[O-])cc3)n2CC(=O)c2ccc(-c3ccccc3)cc2)n(C)c1=O
Activity (HepG2 [1]): Non-toxic

Cn1c(=O)c2c(nc(Oc3ccc(Br)cc3)n2CC(=O)c2ccc(-c3ccccc3)cc2)n(C)c1=O
Activity (HepG2 [1]): Non-toxic
